From patent US10414797B2, “Gelatinase inhibitors and use thereof” (Iproteos S.L, priority 2015, dated 2019)
Where a SMILES comes first, the peptide text is derived from it. [ ]: non-standard residue; d: D form. The star is where a group is joined. ξ: configuration not given here. Pro(trans-4-F) = O=C(O)[C@@H]1C[C@@H](F)CN1; NMeW = CN[C@@H](Cc1c[nH]c2ccccc12)C(=O)O; Benzoyl(3,5-F2) = O=C(c1cc(F)cc(F)c1)*; NMeIle(3ξ) = CCC(C)[C@H](NC)C(=O)O; NMeF = CN[C@@H](Cc1ccccc1)C(=O)O; NMeQ = CN[C@@H](CCC(N)=O)C(=O)O; NMeL = CN[C@@H](CC(C)C)C(=O)O; NMeA = CN[C@@H](C)C(=O)O; Dab = NCC[C@H](N)C(=O)O; Hexanoyl = CCCCCC(=O)*; Butyryl = CCCC(=O)*; Bz = O=C(c1ccccc1)*; NHOH = ON*

Experiments:
[1] = biological target: MMP-7 (Homo sapiens (Human), UniProt P09237); assay: MMP-7 inhibition assay (fluorogenic peptide substrate); format: biochemical; details: recombinant MMP-7 8.3 nM, Mca-PLGL-Dpa-AR-NH2 10 μM, 4 hours at room temperature; tested at 1, 10, 100 and 200 μM
Sequence of MMP-7 (P09237 95-267): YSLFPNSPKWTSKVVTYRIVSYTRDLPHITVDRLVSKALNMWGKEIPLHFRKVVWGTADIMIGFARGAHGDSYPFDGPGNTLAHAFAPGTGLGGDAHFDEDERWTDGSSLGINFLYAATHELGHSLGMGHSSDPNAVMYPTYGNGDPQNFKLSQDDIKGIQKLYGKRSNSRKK
Protocol: All the experiments were done in 1× reaction buffer, which was obtained from a 10× reaction buffer solution. The content of the 10× reaction buffer was: 50 mL of 0.5 M Tris-HCl, 1.5 M NaCl, 50 mM CaCl2 and 2 mM sodium azide at pH 7.6. To obtain the 1× reaction buffer 4 mL of the 10× reaction buffer were diluted in 36 mL of H2O.
Recombinant MMP-7 expressed in E. Coli was obtained from Merck-Millipore (catalog number 44270). Mca-PLGL-Dpa-AR-NH2 (fluorogenic peptide substrate) was obtained from R&D Systems (catalog number ES001).
Preparation of the MMP-7 for the activity assay: MMP-7 was provided as a stock solution (2.1 mg/mL). The enzyme was diluted in water to a final concentration of 0.005 mg/mL.
MMP-7 peptide substrate was provided as a solid (1 mg). A 4 mM stock solution of the substrate in DMSO was obtained by adding 214.7 μL of DMSO. After which, a 100 μM solution of substrate was prepared in 1× reaction buffer.
Procedure: The enzymatic assays were performed in 96-well microtiter plate, which allowed simultaneous monitoring of multiple reactions. For each reaction, 84.6 μL of 1× reaction buffer (pH 7.6), 3.4 μL of MMP-7 (final concentration 8.3 nM) and 2 μL of the corresponding new compound were added to each well. A stock solution of new compound was prepared in DMSO (100 mM), and dilutions were prepared from this stock solution with DMSO. Finally, to the mixture contained in each well 10 μL of the substrate were added (final concentration 10 μM). The reaction was incubated for 4 hours at room temperature in an orbital shaker (90 rpm).
The inhibitory activity of the new compound was measured fluorimetrically. The excitation and emission wavelengths were 320 and 405 nm, respectively.
Inhibitory activity at several concentration points (1, 10, 100 and 200 μM) were measured for each compound. The inhibitory activity on MMP-1, MMP-3 and MMP-7 was calculated according to eq 1 and The IC50 value was calculated as explained above for MMP-2 and MMP-9.

[2] = Parallel artificial membrane permeability assay (PAMPA), Blood-Brain Barrier; format: in vitro ADME; details: initial concentration 200 μM, pH 7.4, 4 hours; for Papp at 4 h, 200 µM: pig, read-out: Effective permeability Pe
Protocol: Parallel Artificial Membrane Permeability Assay (PAMPA)
Parallel artificial membrane permeability assay (PAMPA) described in Kansy et al., J. M. Chem. 1998; 41(7):1007-10 was used here to determine the capacity of compounds to cross the Blood-Brain Barrier (BBB) by passive diffusion (Di L et al., Eur. J. Med. Chem. 2003; 38(3):223-32). The effective permeability (Pe) of the compounds was measured at an initial concentration of 200 μM. The buffer solution was prepared from a commercial concentrated one following the manufacturer's instructions. pH was adjusted to 7.4 using a 0.5 M NaOH solution. A stock solution of new compound was prepared in DMSO and diluted with buffer solution to a final 200 μM concentration (0.5% DMSO content). The PAMPA sandwich was separated and each donor well was filled with […] of the compound solution. The acceptor plate was placed into the donor plate, ensuring that the underside of the membrane was in contact with buffer. 4 μL of the mixture of phospholipids (20 mg/ml) in dodecane was added to the filter of each well, and 200 μL of buffer solution was added to the each acceptor well. The plate was covered and incubated at room temperature in a saturated humidity atmosphere for 4 hours under orbital agitation at 100 rpm. After 4 hours, the contents of the acceptor and donor compartments were analyzed by HPLC: 150 μL of each well from the donor plate and 150 μL of each well from the acceptor plate were transferred to HPLC vials, injecting each sample into a reverse-phase C18 column (150 mm×4.6 mm×5 μm, 100 Å) (100 μL/injection from the acceptor wells, 10 μL/injection from the donor wells and for t0 references). Transport was also confirmed using mass spectrometry (MALDI-TOF).
The phospholipid mixture used was a porcine polar brain lipid extract, provided by Avanti polar lipids, with the following composition: 12.6% phosphatidylcholine (PC), 33.1% phosphatidylethanolamine (PE), 18.5% phosphatidylserine (PS), 4.1% phosphatidylinositol (PI), 0.8% phosphatidic acid and 30.9% of other compounds.
The effective permeability (Pe) after 4 hours was calculated using equation 2 and the percentage of transport (T %) was calculated using equation 3: […]
Ca(t) is the compound concentration in the acceptor well at time t
And Cd(t0) is the compound concentration in the donor well at t0.

**Q.** For `CCC(C)[C@@H](C(=O)N[C@@H](CCNC(=O)c1cc(F)cc(F)c1)C(=O)NO)N(C)C(=O)[C@@H]1CCCN1C(=O)[C@H](C)N(C)C(C)=O` (stereo partly drawn) [Example 12, (2 S)-1-[(2S)-2-[acetyl(methyl)amino]propanoyl]-N-[(1S)-1-[[(1S)-3-[(3,5-difluorobenzoyl)amino]-1-(hydroxycarbamoyl)propyl]carbamoyl]-2-methyl-butyl]-N-methyl-pyrrolidine-2-carboxamide] (Ac-[NMeA]P[NMeIle(3ξ)][Dab](Benzoyl(3,5-F2))-{NHOH}), which IC50 [1] is on record?
**A.** 14.1 µM

**Q.** With `CCCC(=O)N(C)[C@@H](Cc1c[nH]c2ccccc12)C(=O)N(C)[C@@H](CC(C)C)C(=O)N1CCC[C@H]1C(=O)N(C)[C@H](C(=O)N[C@@H](CCNC(=O)c1cc(F)cc(F)c1)C(=O)NO)C(C)CC` (stereo partly drawn) [Example 14, (2S)-1-[(2S)-2-[[(2S)-2-[butanoyl(methyl)amino]-3-(1H-indol-3-yl)propanoyl]-methyl-amino]-4-methyl-pentanoyl]-N-[(1S)-1-[[(1S)-3-[(3,5-difluorobenzoyl)amino]-1-(hydroxycarbamoyl)propyl]carbamoyl]-2-methyl-butyl]-N-methyl-pyrrolidine-2-carboxamide] (Butyryl-[NMeW][NMeL]P[NMeIle(3ξ)][Dab](Benzoyl(3,5-F2))-{NHOH}) as the compound, how does the IC50 [1] read?
**A.** 61 µM

**Q.** What does the source list for `CCC(C)[C@@H](C(=O)N[C@@H](CCNC(=O)c1cc(F)cc(F)c1)C(=O)NO)N(C)C(=O)[C@@H]1CCCN1C(=O)CCCOc1ccccc1` (stereo partly drawn) [Example 9, (2S)—N-[(1S)-1-[[(1S)-3-[(3,5-difluorobenzoyl)amino]-1-(hydroxycarbamoyl)propyl]carbamoyl]-2-methyl-butyl]-N-methyl-1-(4-phenoxybutanoyl)pyrrolidine-2-carboxamide]?
**A.** percentage of transport % T [2]: 9.9%; Papp at 4 h, 200 µM [2]: 5.2 ×10⁻⁶ cm/s; IC50 [1]: 40.3 µM

**Q.** For `CCC(C)[C@@H](C(=O)N[C@@H](CCNC(=O)c1cc(F)cc(F)c1)C(=O)NO)N(C)C(=O)[C@@H]1CC(F)(F)CN1C(=O)CCCOc1ccccc1` (stereo partly drawn) [Example 10, (2S)—N-[(1S)-1-[[(1S)-3-[(3,5-difluorobenzoyl)amino]-1-(hydroxycarbamoyl)propyl]carbamoyl]-2-methyl-butyl]-4,4-difluoro-N-methyl-1-(4-phenoxybutanoyl)pyrrolidine-2-carboxamide], which “percentage of transport % T” value [2] is on record?
**A.** 13.6%

**Q.** And the Papp at 4 h, 200 µM [2]?
**A.** 7.6 ×10⁻⁶ cm/s

**Q.** What about the IC50 [1] of the same compound?
**A.** 8.08 µM

**Q.** Which “percentage of transport % T” value [2] does the source give for `CCC(C)[C@@H](C(=O)N[C@@H](CCNC(=O)c1cc(F)cc(F)c1)C(=O)NO)N(C)C(=O)[C@@H]1CCCN1C(=O)CC(C)C` (stereo partly drawn) [Example 5, (2S)—N-[(1S)-1-[[(1S)-3-[(3,5-difluorobenzoyl)amino]-1-(hydroxycarbamoyl)propyl]carbamoyl]-2-methyl-butyl]-N-methyl-1-(3-methylbutanoyl)pyrrolidine-2-carboxamide] here?
**A.** 7.6%

**Q.** And the Papp at 4 h, 200 µM [2]?
**A.** 1.9 ×10⁻⁶ cm/s

**Q.** What about the IC50 [1] of the same compound?
**A.** 3.48 µM

**Q.** With `CCCCCC(=O)N1CC(F)(F)C[C@H]1C(=O)N(C)[C@H](C(=O)N[C@@H](CCNC(=O)c1cc(F)cc(F)c1)C(=O)NO)C(C)CC` (stereo partly drawn) [Example 7, (2S)—N-[(1S)-1-[[(1S)-3-[(3,5-difluorobenzoyl)amino]-1-(hydroxycarbamoyl)propyl]carbamoyl]-2-methyl-butyl]-4,4-difluoro-1-hexanoyl-N-methyl-pyrrolidine-2-carboxamide] as the compound, how does the “percentage of transport % T” value [2] read?
**A.** 19.0%

**Q.** What about the Papp at 4 h, 200 µM [2] of the same compound?
**A.** 11.3 ×10⁻⁶ cm/s

**Q.** And the IC50 [1]?
**A.** 7.71 µM

**Q.** Which IC50 [1] does the source give for `CC(=O)N1CCC[C@H]1C(=O)N(C)[C@@H](CCC(N)=O)C(=O)N[C@@H](Cc1c[nH]c2ccccc12)C(=O)NO` [Example C20, (2S)-2-[[(2S)-1-acetylpyrrolidine-2-carbonyl]-methyl-amino]-N-[(1S)-2-(hydroxyamino)-1-(1H-indol-3-ylmethyl)-2-oxo-ethyl]pentanediamide, reference compound] (Ac-Pro-[NMeQ]-Trp-{NHOH}) here?
**A.** > 2000 µM

**Q.** With `CCCCCC(=O)N1C[C@H](F)C[C@H]1C(=O)N(C)[C@H](C(=O)N[C@@H](CCNC(=O)c1ccccc1)C(=O)NO)C(C)CC` (stereo partly drawn) [Example 16, (2S,4R)—N-[(1S)-1-[[(1S)-3-benzamido-1-(hydroxycarbamoyl)propyl]carbamoyl]-2-methyl-butyl]-4-fluoro-N-methyl-1-hexanoyl-pyrrolidine-2-carboxamide] (Hexanoyl-[Pro(trans-4-F)]-[NMeIle(3ξ)]-[Dab](Bz)-{NHOH}) as the compound, how does the “percentage of transport % T” value [2] read?
**A.** 7.3%

**Q.** And the Papp at 4 h, 200 µM [2]?
**A.** 3.7 ×10⁻⁶ cm/s

**Q.** And the IC50 [1]?
**A.** 1 µM

**Q.** What does the source list for `CCCC(=O)N1CCC[C@H]1C(=O)N(C)[C@H](C(=O)N[C@@H](CCNC(=O)c1cc(F)cc(F)c1)C(=O)NO)C(C)CC` (stereo partly drawn) [Example 4, (2S)-1-butanoyl-N-[(1S)-1-[[(1S)-3-[(3,5-difluorobenzoyl)amino]-1-(hydroxycarbamoyl)propyl]carbamoyl]-2-methyl-butyl]-N-methyl-pyrrolidine-2-carboxamide]?
**A.** percentage of transport % T [2]: 3.1%; Papp at 4 h, 200 µM [2]: 0.74 ×10⁻⁶ cm/s; IC50 [1]: 4.42 µM

**Q.** With `CCC(C)[C@@H](C(=O)N[C@@H](CCNC(=O)c1cc(F)cc(F)c1)C(=O)NO)N(C)C(=O)[C@@H]1CCCN1C(C)=O` (stereo partly drawn) [Example 2, (2S)-1-acetyl-N-[(1S)-1-[[(1S)-3-[(3,5-difluorobenzoyl)amino]-1-(hydroxycarbamoyl)propyl]carbamoyl]-2-methyl-butyl]-N-methyl-pyrrolidine-2-carboxamide] as the compound, how does the “percentage of transport % T” value [2] read?
**A.** 0.8%

**Q.** What about the Papp at 4 h, 200 µM [2] of the same compound?
**A.** 0.2 ×10⁻⁶ cm/s

**Q.** What about the IC50 [1] of the same compound?
**A.** 31.4 µM

**Q.** With `CCC(C)[C@@H](C(=O)N[C@@H](CCNC(=O)c1cc(F)cc(F)c1)C(=O)NO)N(C)C(=O)[C@@H]1CCCN1C(=O)[C@H](Cc1ccccc1)N(C)C(C)=O` (stereo partly drawn) [Example 11, (2 S)-1-[(2S)-2-[acetyl(methyl)amino]-3-phenyl-propanoyl]-N-[(1S)-1-[[(1S)-3-[(3,5-difluorobenzoyl)amino]-1-(hydroxycarbamoyl)propyl]carbamoyl]-2-methyl-butyl]-N-methyl-pyrrolidine-2-carboxamide] (Ac-[NMeF]P[NMeIle(3ξ)][Dab](Benzoyl(3,5-F2))-{NHOH}) as the compound, how does the IC50 [1] read?
**A.** 20.1 µM

**Q.** For `CCC(C)[C@@H](C(=O)N[C@@H](CCNC(=O)c1cc(F)cc(F)c1)C(=O)NO)N(C)C(=O)[C@@H]1CCCN1C(=O)CCN(C)C(C)=O` (stereo partly drawn) [Example 13, (2S)-1-[3-[acetyl(methyl)amino]propanoyl]-N-[(1S)-1-[[(1S)-3-[(3,5-difluorobenzoyl)amino]-1-(hydroxycarbamoyl)propyl]carbamoyl]-2-methyl-butyl]-N-methyl-pyrrolidine-2-carboxamide], which IC50 [1] is on record?
**A.** 50.4 µM

**Q.** Which IC50 [1] does the source give for `CC(=O)N1CCC[C@H]1C(=O)N[C@@H](CCC(N)=O)C(=O)N[C@@H](Cc1c[nH]c2ccccc12)C(=O)NO` [Example C17, (2S)-2-[[(2S)-1-acetylpyrrolidine-2-carbonyl)amino]-N-[(1S)-2-(hydroxyamino)-1-(1H-indol-3-ylmethyl)-2-oxo-ethyl]pentanediamide, reference compound] (Ac-Pro-Gln-Trp-{NHOH}) here?
**A.** > 2000 µM
